Measurements taken from patent US11584763B2, “Chromenopyridine derivatives as phosphatidylinositol phosphate kinase inhibitors” (HIBERCELL, INC., priority 2017, dated 2023).

Key:
PIP4K2B = target: T1, PIP4K2B (Homo sapiens, UniProt P78356); assay: Trans-FI P kinase assay PIP4K2B (PIP4KtypeIIB inhibition assay); assay type: biochemical; conditions: compounds listed under IC50 bin headings; 100 uM GTP; read-out: Trans-FI P kinase assays: PIP4K2B IC50
T1 construct: made in house; host or cells: E. coli
T1 sequence (P78356 1-416): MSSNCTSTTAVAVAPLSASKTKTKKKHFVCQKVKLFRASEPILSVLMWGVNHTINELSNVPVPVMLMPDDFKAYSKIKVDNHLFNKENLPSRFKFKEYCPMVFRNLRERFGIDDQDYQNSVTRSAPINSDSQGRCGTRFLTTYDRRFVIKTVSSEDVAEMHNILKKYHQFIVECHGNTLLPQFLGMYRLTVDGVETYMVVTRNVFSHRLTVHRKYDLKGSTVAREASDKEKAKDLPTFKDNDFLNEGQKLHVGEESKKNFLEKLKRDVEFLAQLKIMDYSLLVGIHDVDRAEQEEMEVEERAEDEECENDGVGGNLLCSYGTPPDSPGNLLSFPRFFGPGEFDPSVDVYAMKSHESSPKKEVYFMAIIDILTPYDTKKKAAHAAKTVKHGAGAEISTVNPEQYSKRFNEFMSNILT
Description: GST tagged PIP4KtypeIIA and B enzymes were overexpressed in E. Coli and purified to >80% homogeneity. Phosphatidyl inositol-5-phosphate (PI5P, Cat. #850152, Avanti Polar Lipids Inc.) was used as the lipid substrate and phosphatidyl ethanolamine (DOPE 18:1, Cat. #850725, Avanti Polar Lipids Inc.) was used as the carrier lipid for assays. Ultrapure ATP and GTP was purchased from Bellbrooke Labs. ADP Glo reagents were obtained from Promega. Transcreener FI reagent was obtained from Bellbrooke labs.
GST-tagged PIP4KtypeIIB (3.4 uL, 2.77 mg/mL) was diluted to 5 mL using HNE buffer to yield 5× enzyme stock (25 nM)
Lipid Preparation: In a 10 mL pyrex glass vial, 1 ug of PI5P and 1 ug of DOPE were suspended in 2.5 mL of HEPES buffer mix and 2.5 mL of H:E buffer. The contents were mixed and sonicated for 3 min to yield a translucent lipid stock.
Compound Preparation: Compounds were stored as 5 mM stocks in neat DMSO as room temperature in glass vials. 5 mM stocks were diluted to 2 mM and then serially diluted (3×) in neat DMSO in 96 well polypropylene plates. From the serially diluted stocks, 3 uL was delivered into 250 uL of 25% DMSO (in water) to generate 5× compound stocks. Typically, the highest compound conc. was 24 uM.
The assay volume was kept at 25 uL. To each well of the reaction plate, 10 uL of lipid stock (1:1 ratio PI5P:DOPE) was delivered. This was followed by the addition of 5 uL of compound in 25% DMSO. Then, to each well, 5 uL of 25 nM (5×) typeIIB enzyme was delivered. The contents were mixed well and incubated for 1 h at 27 C. After 1 h, reaction was initiated by adding 5 uL of 500 uM GTP and the contents were mixed well with a multi-channel pipetteman. The final concentration of the reagents are as follows: 50 mM HEPES, pH 7.3, 10 mM MgCl2, 20 mM NaCl, 0.01% v/v triton-X100, 5% DMSO, 100 uM GTP, 80 uM (2 ug) PI5P, 2 ug DOPE, and 5 nM PIP4KIIB Typically, the highest conc. of compounds was 4.8 uM and the lowest conc. was 0.
After 2 h, the reaction was quenched by adding 25 uL of transcreener FI reagent. The contents were incubated at RT for 1 h and the Fluorescence (Ex: 584 Em: 623) was read using Molecular Devices Paradigm plate reader. […] The blanks were averaged and subtracted from all other wells. Using a calibration curve, RFU was converted to uM GDP (product). IC50 was calculated by plotting the residual activity (expressed as % No inhibitor control) vs. log [Inh. conc.]

PIP4K 2A = target: T2, PIP4K 2A (Homo sapiens, UniProt P48426); assay: ADP-glo kinase assay PIP4K 2A; assay type: biochemical; set-up: 4 nM PIP4K2A (full length protein, SignalChem); purchased SignalChem; conditions: compounds listed under IC50 bin headings
T2 sequence (P48426 1-406): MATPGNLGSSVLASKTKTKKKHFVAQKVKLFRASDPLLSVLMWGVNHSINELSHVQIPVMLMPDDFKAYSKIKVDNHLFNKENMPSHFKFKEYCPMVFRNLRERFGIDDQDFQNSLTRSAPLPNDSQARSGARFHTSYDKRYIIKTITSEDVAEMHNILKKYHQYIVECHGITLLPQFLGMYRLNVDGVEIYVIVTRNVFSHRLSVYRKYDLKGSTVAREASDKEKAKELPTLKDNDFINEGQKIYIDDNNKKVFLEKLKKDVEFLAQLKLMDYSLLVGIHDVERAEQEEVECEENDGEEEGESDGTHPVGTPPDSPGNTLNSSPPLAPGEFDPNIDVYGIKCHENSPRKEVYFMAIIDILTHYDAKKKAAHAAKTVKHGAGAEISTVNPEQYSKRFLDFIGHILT
Method: Dilution series of the compounds were prepared in DMSO at 100 times the final assay concentration (n1=n0/3 in 10 points). The compounds were further diluted to three times the assay concentration in assay buffer (20 mM MOPS pH 7.2, 25 mM magnesium chloride, 0.005% Tween 20). 6 μL of the diluted compounds were added to a 384 well assay plate followed by 9 μL of a mix consisting of 4 nM PIP4K2A (full length protein, SignalChem) and 100 μM PI(5)P diC8 (Tebu-Bio). Enzyme and compounds were pre-incubated at room temperature for 15 minutes.
Then 3 μL of a solution containing 60 μM ATP (Promega) in assay buffer was added to the wells containing compound and enzyme and mixing was performed by pipetting several times. The reaction was incubated at room temperature for 1 h. Then 18 μL of ADP-Glo™ Reagent (Promega) was added to stop the kinase reaction and deplete the unconsumed ATP, mixing was performed by pipetting several times. The plate was incubated at room temperature for 40 minutes before addition of 36 μL of Kinase Detection Reagent (Promega) to convert ADP to ATP and introduce luciferase and luciferin to detect ATP. The reaction was incubated at room temperature for 40 minutes before the luminescence was measured in a in a Victor 3V 1420 multilabel counter (Perkin Elmer).
Percent inhibition of the compounds as compared to dimethyl sulfoxide treated control samples was calculated. Compound concentration versus percent inhibition were fitted to generate IC50 values.

SMILES	IC50 (PIP4K2B) [nM]	IC50 (PIP4K 2A) [nM]
CC1Oc2cc(N3CCCC3=O)ccc2-c2cnc(Nc3cncc(NC(=O)c4ccc5c(c4)COB5O)c3)cc21 (centres unmarked) [Example 116, 1-hydroxy-N-(5-((5-methyl-8-(2-oxopyrrolidin-1-yl)-5H-chromeno[4,3-c]pyridin-3-yl)amino)pyridin-3-yl)-1,3-dihydrobenzo[c][1,2]oxaborole-5-carboxamide]	10 to 100	≤ 1
CC1Oc2cc(N3CCCC3=O)ccc2-c2cnc(Nc3cncc(NC(=O)c4ccc5c(c4)B(O)OC5)c3)cc21 (centres unmarked) [Example 117, 1-hydroxy-N-(5-((5-methyl-8-(2-oxopyrrolidin-1-yl)-5H-chromeno[4,3-c]pyridin-3-yl)amino)pyridin-3-yl)-1,3-dihydrobenzo[c][1,2]oxaborole-6-carboxamide]	10 to 100	1 to 10
CC1Oc2cc(N3CCCC3=O)ccc2-c2cnc(Nc3cncc(NC(=O)c4cccc5c4COB5O)c3)cc21 (centres unmarked) [Example 118, 1-hydroxy-N-(5-((5-methyl-8-(2-oxopyrrolidin-1-yl)-5H-chromeno[4,3-c]pyridin-3-yl)amino)pyridin-3-yl)-1,3-dihydrobenzo[c][1,2]oxaborole-4-carboxamide]	10 to 100	1 to 10
CC1Oc2cc(N3CCCC3=O)ccc2-c2cnc(Nc3cncc(NC(=O)c4ccc(F)cc4)c3)cc21 (centres unmarked) [Example 119, 4-fluoro-N-(5-((5-methyl-8-(2-oxopyrrolidin-1-yl)-5H-chromeno[4,3-c]pyridin-3-yl)amino)pyridin-3-yl)benzamide]	10 to 100	10 to 100
CC1Oc2cc(N3CCCC3=O)ccc2-c2cnc(Nc3cncc(NC(=O)c4cccc(F)c4)c3)cc21 (centres unmarked) [Example 120, 3-fluoro-N-(5-((5-methyl-8-(2-oxopyrrolidin-1-yl)-5H-chromeno[4,3-c]pyridin-3-yl)amino)pyridin-3-yl)benzamide]	> 1000	1 to 10
COc1cccc(C(=O)Nc2cncc(Nc3cc4c(cn3)-c3ccc(N5CCCC5=O)cc3OC4C)c2)c1 (centres unmarked) [Example 121, 3-methoxy-N-(5-((5-methyl-8-(2-oxopyrrolidin-1-yl)-5H-chromeno[4,3-c]pyridin-3-yl)amino)pyridin-3-yl)benzamide]	1 to 10	≤ 1
COc1ccc(C(=O)Nc2cncc(Nc3cc4c(cn3)-c3ccc(N5CCCC5=O)cc3OC4C)c2)cc1 (centres unmarked) [Example 122, 4-methoxy-N-(5-((5-methyl-8-(2-oxopyrrolidin-1-yl)-5H-chromeno[4,3-c]pyridin-3-yl)amino)pyridin-3-yl)benzamide]	10 to 100	1 to 10
CC1Oc2cc(N3CCCC3=O)ccc2-c2cnc(Nc3cncc(NC(=O)c4cccc5[nH]ccc45)c3)cc21 (centres unmarked) [Example 123, N-(5-((5-methyl-8-(2-oxopyrrolidin-1-yl)-5H-chromeno[4,3-c]pyridin-3-yl)amino)pyridin-3-yl)-1H-indole-4-carboxamide]	1 to 10	1 to 10
CC1Oc2cc(N3CCCC3=O)ccc2-c2cnc(Nc3cncc(NC(=O)c4ccnnc4)c3)cc21 (centres unmarked) [Example 125, N-(5-((5-methyl-8-(2-oxopyrrolidin-1-yl)-5H-chromeno[4,3-c]pyridin-3-yl)amino)pyridin-3-yl)pyridazine-4-carboxamide]	10 to 100	1 to 10
CC1Oc2cc(N3CCCC3=O)ccc2-c2cnc(Nc3cncc(NC(=O)c4cncc(N)n4)c3)cc21 (centres unmarked) [Example 126, 6-amino-N-(5-((5-methyl-8-(2-oxopyrrolidin-1-yl)-5H-chromeno[4,3-c]pyridin-3-yl)amino)pyridin-3-yl)pyrazine-2-carboxamide]	10 to 100	1 to 10
CC(=O)Nc1cc(Nc2cc3c(cn2)-c2ccc(N4CCCC4=O)cc2OC3C)cnn1 (centres unmarked) [Example 129, N-(5-((5-methyl-8-(2-oxopyrrolidin-1-yl)-5H-chromeno[4,3-c]pyridin-3-yl)amino)pyridazin-3-yl)acetamide]	10 to 100	1 to 10
CC(CC(=O)Nc1cncc(Nc2cc3c(cn2)-c2ccc(N4CCCC4=O)cc2OC3C)c1)c1ccccc1 (centres unmarked) [Example 132, N-(5-((5-methyl-8-(2-oxopyrrolidin-1-yl)-5H-chromeno[4,3-c]pyridin-3-yl)amino)pyridin-3-yl)-3-phenylbutanamide]	10 to 100	1 to 10
CC(Cc1ccccc1)C(=O)Nc1cncc(Nc2cc3c(cn2)-c2ccc(N4CCCC4=O)cc2OC3C)c1 (centres unmarked) [Example 133, 2-methyl-N-(5-((5-methyl-8-(2-oxopyrrolidin-1-yl)-5H-chromeno[4,3-c]pyridin-3-yl)amino)pyridin-3-yl)-3-phenylpropanamide]	10 to 100	1 to 10
CC1Oc2cc(N3CCCC3=O)ccc2-c2cnc(Nc3cncc(NC(=O)C(O)Cc4ccccc4)c3)cc21 (centres unmarked) [Example 134, 2-hydroxy-N-(5-((5-methyl-8-(2-oxopyrrolidin-1-yl)-5H-chromeno[4,3-c]pyridin-3-yl)amino)pyridin-3-yl)-3-phenylpropanamide]	10 to 100	1 to 10
CC1Oc2cc(N3CCCC3=O)ccc2-c2cnc(Nc3cncc(NC(=O)C4CCCO4)c3)cc21 (centres unmarked) [Example 135, N-(5-((5-methyl-8-(2-oxopyrrolidin-1-yl)-5H-chromeno[4,3-c]pyridin-3-yl)amino)pyridin-3-yl)tetrahydrofuran-2-carboxamide]	10 to 100	1 to 10
CC1Oc2cc(N3CCCC3=O)ccc2-c2cnc(Nc3cncc(NC(=O)c4ccc5c(c4)OCO5)c3)cc21 (centres unmarked) [Example 136, N-(5-((5-methyl-8-(2-oxopyrrolidin-1-yl)-5H-chromeno[4,3-c]pyridin-3-yl)amino)pyridin-3-yl)benzo[d][1,3]dioxole-5-carboxamide]	10 to 100	1 to 10
